Measurements from paper PMC10412585 (Nature Communications, 2023).
“Also recorded” adds a separate entry of the source. Where two headings read alike, the source gives them in different places.

What was measured:
Assay type in all cases: cell-based, human
[1] = system: NKG2C+ NK cells; assay: NK cell activation assay with peptide-pulsed RMA-S/HLA-E cells; conditions: for average percent CD107a+: NKG2C+ NK cells with RMA-S/HLA-E cells, Fig. 4B, stated in author rebuttal
Description: (§1) Fig. 4 NK cell stimulation assays. Assessment of effects of peptides on NK cell activity through incubation of NK cells, peptides, and (A) K562/HLA-E or (B) RMA-S/HLA-E target cells. […] Replicates for individual peptides are from different donors, with solid black lines indicating mean values. […] Representative gating for NKG2A^+/NKG2C^- and NKG2A^-/NKG2C^+ NK cells is shown in Supplemental Fig. 14. Source data are provided as a Source Data file.
In contrast to K562 cell lines which are targets for human NK cells, RMA-S cells (a TAP-deficient mouse cell line)[48] are inert to human NK cells and thus will not activate NK cells absent engagement of an activating receptor on the NK cells. […] We performed additional NK cell activation assays with RMA-S/HLA-E cells (Fig. 4B).
(§2) All analyses of human data were carried out in compliance with the relevant ethical regulations. Healthy blood donors gave informed consent at DRK Blutspendedienst Nord-Ost, Dresden, Germany, and buffy coats were obtained as approved by Charité ethics committee (EA4/059/17). PBMCs were isolated from human CMV-seropositive buffy coats by density centrifugation over Ficoll Paque Plus (GE Healthcare) and screened for the presence of NKG2C^+ NK cell expansions by flow cytometry to have sufficient frequencies of single-positive cells for parallel assessment of activation and inhibition via HLA-E[47]. Total NK cells from donors with NKG2C^+ expansions (>10% NKG2A^-/NKG2C^+ NK cells) were enriched with CD56 microbeads (Miltenyi Biotec) and cryopreserved in FBS with 10% v/v DMSO. After thawing, NK cells were washed with complete medium, stained with antibodies and Fixable Viability Dye eFluor 780 (Thermo Fisher) for 15 min at 4 °C in PBS, sorted as viable CD56^+ CD3^− cells, and rested in complete media overnight. […] Brefeldin A and Monensin (BD Biosciences) were added after a 1 h culture period. After an additional 5 h, the stimulation was stopped by centrifugation at 4 °C. Cells underwent surface staining, followed by fixation and intracellular staining using Inside Stain Kit (Miltenyi Biotec). Samples were analyzed by flow cytometry on an LSR Fortessa (BD Biosciences). Inhibition of NKG2A^+ NK cells and activation of NKG2C^+ NK cells was assessed by gating on the respective single-positive populations (Supplemental Fig. 14). Antibodies are listed in Supplemental Table 1: anti-human CD56 PE/Dazzle 594 (1:200 dilution), CD3 APC-eFluor 780 (1:50 dilution), anti-human CD159a (NKG2A) Biotin REAfinity (1:50 dilution), anti-human CD159c (NKG2C) PE REAfinity (1:100 dilution), anti-human CD107a (LAMP-1) Alexa Fluor 488 (1:400 dilution), anti-human IFN-γ PE-Vio 770 REAfinity (1:50 dilution), anti-human TNF-α Brilliant Violet 605 (1:50 dilution), anti-human CCL3 (MIP-1α) REAfinity (1:25 dilution).

[2] = system: NKG2A+/NKG2C- NK cells; assay: NK cell activation assay with peptide-pulsed K562/HLA-E cells, NKG2A+/NKG2C- NK cells; conditions: K562/HLA-E target cells, 300 µM peptide ([…] µM BFAR263-271), E:T 2:1, 6 h; degranulation (CD107a), IFN-γ, TNF, CCL3; flow cytometry
Description: (§3) We hypothesized that our predicted proteome-derived peptides could affect NK cell activation through interactions with CD94/NKG2A and CD94/NKG2C. To investigate, we performed cell-based activation assays on primary NK cells (Fig. 4A). NK cells were co-incubated with peptide-pulsed HLA-E-expressing K562 cells, as described previously. The parental K562 human myelogenous leukemia cell line is a typical target to measure NK cell cytotoxicity and activation, allowing for assessment of both NKG2A-mediated inhibition and NKG2C-mediated activation. […] NKG2A^-/NKG2C^- NK cells served as internal control as these should be unaffected by peptide-HLA-E complexes (Supplemental Fig. 12).
as §1, §2

[3] = system: HLA-E; assay: HLA-E surface stabilization assay with RMA-S/HLA-E cells; conditions: peptide 3-300 µM (Fig. 3: 30 µM) in OptiMEM, 16 h, 37 °C, anti-HLA-E 3D12, flow cytometry, n = 4 replicate experiments
Description: To probe top-predicted proteome-derived peptides (Tables 2 and 3) for HLA-E binding, we assessed their ability to stabilize surface-expressed HLA-E on RMA-S/HLA-E cells, a TAP-deficient mouse cell line engineered to express HLA-E and human β2M (Fig. 3 and Supplemental Fig. 8)[47].
Fig. 3 Peptide stabilization of HLA-E surface expression. Assessment of peptide-HLA-E binding via HLA-E surface stabilization assay with RMA-S/HLA-E cells incubated with 30 μM peptide. HLA-E expression is detected with an anti-HLA-E antibody. Measurements from n = 4 replicate experiments are shown, with solid black lines indicating mean values. […] Source data are provided as a Source Data file.
RMA-S/HLA-E cells were incubated with serial dilutions of peptides (3–300 µM, Genscript) in OptiMEM (ThermoFisher) for 16 h at 37 °C. Cells were washed with PBS, stained for HLA-E (Clone 3D12, Biolegend, 1:200 dilution) for 15 min at room temperature and analyzed by flow cytometry (analysis in FlowJo version 10). Peptide UBAC2_275-279 was ordered as a 5mer peptide (WNRLF) given the similarity with other WN peptides and hypothesis of a truncated peptide binding in the HLA-E groove. […] Measurements from replicate experiments are plotted in Fig. 3 and Supplemental Fig. 8.

[4] = system: NKG2A-/NKG2C+ NK cells; assay: NK cell activation assay with peptide-pulsed K562/HLA-E cells, NKG2A-/NKG2C+ NK cells; conditions: K562/HLA-E target cells, 300 µM peptide ([…] µM BFAR263-271), E:T 2:1, 6 h; degranulation (CD107a), IFN-γ, TNF, CCL3; flow cytometry
Description: as §3, §1, §2

[5] = RMA-S/HLA-E target cells, 300 µM peptide ([…] µM BFAR263-271), E:T 2:1, 6 h, flow cytometry, n = 3 (n = 2 for some) donors

Substance	NKG2C-mediated NK cell activation [1]	inhibitory effects on NKG2A+ cells [2]	stabilization of HLA-E surface expression [3]	activating effects on NKG2C+ cells [4]	average percent CD107a+ [1]	NKG2C-mediated NK cell activation [1, 5]
FLPNRSLLF [SLC52A3_354-362, human peptide from Solute carrier family 52, riboflavin transporter, member 3]	activation similar to the weaker positive control ([…]) or between the two positive controls	more moderate inhibitory effects	strong binding that is weaker than VMAPRTLFL; also recorded: strong stabilization	strong activating effects		
WNRILPNAY [library-derived WN 9mer peptide (P1 Trp, P2 Asn)]			did not stabilize HLA-E surface			
VMADKSIFY [OR5D14_88-96, human peptide from Olfactory receptor 5D14]			no detectable binding; also recorded: no stabilizing effects			
WNRILPNA [length variant of WN peptide]			did not stabilize HLA-E surface			
VMAPQSLLL [negative control peptide, reference compound]	Minimal activation				1.1%	
VMPPRTLLL [HLA-A3-11, human peptide from HLA class I histocompatibility antigen]	activation similar to the weaker positive control ([…]) or between the two positive controls	strong inhibitory effects	HLA-E stabilization matching VMAPRTLFL peptide; also recorded: strong stabilization	strong activating effects		
WNRIL [length variant of WN peptide]			did not stabilize HLA-E surface			
TLPKRGLFL [AKAP6_388-396, human peptide from A-kinase anchor protein 6]		more moderate inhibitory effects	strong binding that is weaker than VMAPRTLFL; also recorded: strong stabilization	strong activating effects		activation at the level of the strongest positive control binder (VMAPRTLFL)
NMPARTVLF [MTREX490-498, human peptide from Exosome RNA helicase MTR4]		strong inhibitory effects	strong binding that is weaker than VMAPRTLFL; also recorded: strong stabilization	strong activating effects		detectable activation, though below both positive control examples
SVPLKTRFL [UL120_71-79, BE/33/2010, divergent UL120 peptide of CMV strain BE/33/2010]		minimal effects	weaker but detectable stabilization	minimal effects		
WNRILP [length variant of WN peptide]			did not stabilize HLA-E surface			
VMAPRTLIL [canonical signal peptide / CMV UL40-derived HLA-E ligand; positive control, reference compound]						weaker positive control
TGAARSFFF [UL102_292-300, CMV peptide from DNA helicase/primase complex-associated protein]			no detectable binding; also recorded: no stabilizing effects			
VMGDRSVLY [EMC1_725-733, human peptide from ER membrane protein complex subunit 1]			no detectable binding; also recorded: no stabilizing effects			
RMPPRSVLL [INTS1_260-268, human peptide from Integrator complex subunit 1]		strong inhibitory effects	HLA-E stabilization matching VMAPRTLFL peptide; also recorded: strong stabilization	strong activating effects		
TAPARTMFL [PISD55-63, human peptide from Phosphatidylserine decarboxylase proenzyme, mitochondrial]	detectable activation, though below both positive control examples	minimal inhibitory effects	strong binding that is weaker than VMAPRTLFL; also recorded: strong stabilization	clear activating effects	7.8%	
TLPERTLYL [ECEL1_269-277, human peptide from Endothelin-converting enzyme-like 1]	activation similar to the weaker positive control ([…]) or between the two positive controls	strong inhibitory effects	HLA-E stabilization matching VMAPRTLFL peptide; also recorded: strong stabilization	strong activating effects		
VMPGRTLCF [TACR3_226-234, human peptide from Neuromedin-K receptor]	activation similar to the weaker positive control ([…]) or between the two positive controls	strong inhibitory effects	HLA-E stabilization matching VMAPRTLFL peptide; also recorded: strong stabilization	strong activating effects		
WNRLF [UBAC2_275-279, UBAC2 peptide ordered and tested as a 5mer peptide (WNRLF)]			no detectable binding; also recorded: no stabilizing effects			
ILTDRSLWL [FBXO41_670-678, human peptide from F-box only protein 41]		more moderate inhibitory effects	strong binding that is weaker than VMAPRTLFL; also recorded: strong stabilization	strong activating effects		activation at the level of the strongest positive control binder (VMAPRTLFL)
WNRILPN [length variant of WN peptide]			did not stabilize HLA-E surface			
